Measured values from US6525001B1, “Substituted pyrimidine and pyridine herbicides” (Mid-American Commercialization Corporation, priority 1997, dated 2003).

How the values were obtained:
Type in all cases: in vivo
[1] = test system: rape (Brassica napus); assay: Test B pre-/postemergence; design: key: 0 is no effect; 10 is complete control
How it was run: (§1)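 Scored visually 0 (none) to 10 (complete control) against untreated plants after twelve to sixteen greenhouse days. Test chemicals, formulated in surfactant-containing non-phytotoxic solvent, applied to soil after planting and, separately, onto 1- to 4-leaf (2–18 cm) plants.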

[2] = test system: wild oat (Avena fatua); assay: Test B pre-/postemergence; design: key: 0 is no effect; 10 is complete control
How it was run: as §1

[3] = test system: velvetleaf (Abutilon theophrasti); assay: Test B pre-/postemergence; design: key: 0 is no effect; 10 is complete control
How it was run: as §1

[4] = test system: bedstraw (Galium aparine); assay: Test B pre-/postemergence; design: key: 0 is no effect; 10 is complete control; settings: for Bedstraw plant response rating: Preemergence
How it was run: as §1

[5] = test system: pigweed (Amaranthus retroflexus); assay: Test B pre-/postemergence; design: key: 0 is no effect; 10 is complete control
How it was run: as §1

[6] = test system: crabgrass (Digitaria sanguinalis); assay: Test B pre-/postemergence; design: key: 0 is no effect; 10 is complete control; settings: for Crabgrass plant response rating: Preemergence
How it was run: as §1

[7] = test system: soybean (Glycine max); assay: Test B pre-/postemergence; design: key: 0 is no effect; 10 is complete control
How it was run: as §1

[8] = test system: sugar beet (Beta vulgaris); assay: Test B pre-/postemergence; design: key: 0 is no effect; 10 is complete control
How it was run: as §1

[9] = test system: purple nutsedge (Cyperus rotundus); assay: Test B pre-/postemergence; design: key: 0 is no effect; 10 is complete control; settings: Postemergence
How it was run: as §1

[10] = test system: momingglory (Ipomoea hederacea); assay: Test B pre-/postemergence; design: key: 0 is no effect; 10 is complete control
How it was run: as §1

[11] = test system: corn (Zea mays); assay: Test B pre-/postemergence; design: key: 0 is no effect; 10 is complete control; settings: for Corn plant response rating: Preemergence
How it was run: as §1

[12] = test system: cocklebur (Xanthium strumarium); assay: Test B pre-/postemergence; design: key: 0 is no effect; 10 is complete control; settings: for Cocklebur plant response rating: Preemergence
How it was run: as §1

[13] = test system: giant foxtail (Setaria faberii); assay: Test B pre-/postemergence; design: key: 0 is no effect; 10 is complete control
How it was run: as §1

[14] = test system: blackgrass (Alopecurus myosuroides); assay: Test B pre-/postemergence; design: key: 0 is no effect; 10 is complete control; settings: for Blackgrass plant response rating: Preemergence
How it was run: as §1

[15] = test system: broadleaf signalgrass (Brachiaria decumbens); assay: Test B pre-/postemergence; design: key: 0 is no effect; 10 is complete control; settings: for B. signalgrass plant response rating: Preemergence
How it was run: as §1

[16] = test system: wheat (Triticum aestivum); assay: Test B pre-/postemergence; design: key: 0 is no effect; 10 is complete control
How it was run: as §1

[17] = test system: duck salad (Heteranthera limosa); assay: Test B flood test
How it was run: (§2)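 Flood test on plants grown to the 2-leaf stage; treated plants kept in greenhouse twelve to sixteen days, then visually rated against controls on a 0 (no effect) to 10 (complete control) scale.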

[18] = test system: bamyardgrass (Echinochloa crus-galli); assay: Test B flood test
How it was run: as §2

[19] = test system: smallflower flatsedge (Cyperus difformis); assay: Test B flood test
How it was run: as §2

[20] = test system: rice (Oryza sativa); assay: Test B flood test
How it was run: as §2

[21] = Rate 250 g/ha, Postemergence (so in the source)
[22] = Rate 62 g/ha, Postemergence (flood test)
[23] = Rate 125 g/ha, Postemergence, flood test
[24] = Rate 250 g/ha, Postemergence (flood test species)
[25] = Rate 125 g/ha, Postemergence section (flood test species)

## CCc1cnc(-n2cnc(C(F)(F)F)n2)nc1Cc1cccc(OC(F)(F)F)c1 [Compound 50]
[1]; Rate 62 g/ha, Postemergence
  Plant response rating, Rape: 9
[1]; Rate 62 g/ha, Preemergence
  Rape plant response rating: 6
[1]; Rate 125 g/ha, Postemergence
  Rape plant response rating: 10
[1]; Rate 125 g/ha, Preemergence
  Rape plant response rating: 10
[1]; Rate 250 g/ha, Postemergence
  Plant response rating, Rape: 10
[1]; [21]
  Plant response rating, Rape: 10
[2]; Rate 62 g/ha, Postemergence
  Wild oats plant response rating: 2
[2]; Rate 62 g/ha, Preemergence
  Wild oats plant response rating: 3
[2]; Rate 125 g/ha, Postemergence
  Wild oats plant response rating: 3
[2]; Rate 125 g/ha, Preemergence
  Plant response rating, Wild oats: 4
[2]; Rate 250 g/ha, Postemergence
  Plant response rating, Wild oats: 4
[2]; [21]
  Plant response rating, Wild oats: 8
[3]; Rate 62 g/ha, Postemergence
  Plant response rating, Velvetleaf: 6
[3]; Rate 62 g/ha, Preemergence
  Velvetleaf plant response rating: 4
[3]; Rate 125 g/ha, Postemergence
  Velvetleaf plant response rating: 7
[3]; Rate 125 g/ha, Preemergence
  Plant response rating, Velvetleaf: 7
[3]; Rate 250 g/ha, Postemergence
  Plant response rating, Velvetleaf: 8
[3]; [21]
  Plant response rating, Velvetleaf: 9
[4]; Rate 62 g/ha, Postemergence
  Plant response rating, Bedstraw: 9
[4]; Rate 62 g/ha
  Bedstraw plant response rating: 2
[4]; Rate 125 g/ha, Postemergence
  Plant response rating, Bedstraw: 10
[4]; Rate 125 g/ha
  Bedstraw plant response rating: 7
[4]; [21]
  Plant response rating, Bedstraw: 9
[5]; Rate 62 g/ha, Postemergence
  Plant response rating, Redroot pigweed: 8
[5]; Rate 62 g/ha, Preemergence
  Redroot pigweed plant response rating: 7
[5]; Rate 125 g/ha, Postemergence
  Redroot pigweed plant response rating: 8
[5]; Rate 125 g/ha, Preemergence
  Redroot pigweed plant response rating: 9
[5]; Rate 250 g/ha, Postemergence
  Plant response rating, Redroot pigweed: 9
[5]; [21]
  Plant response rating, Redroot pigweed: 9
[6]; Rate 62 g/ha, Postemergence
  Plant response rating, Crabgrass: 1
[6]; Rate 62 g/ha
  Crabgrass plant response rating: 6
[6]; Rate 125 g/ha, Postemergence
  Plant response rating, Crabgrass: 2
[6]; Rate 125 g/ha
  Crabgrass plant response rating: 9
[6]; Rate 250 g/ha, Postemergence
  Plant response rating, Crabgrass: 6
[6]; [21]
  Plant response rating, Crabgrass: 9
[7]; Rate 62 g/ha, Postemergence
  Plant response rating, Soybean: 6
[7]; Rate 62 g/ha, Preemergence
  Soybean plant response rating: 1
[7]; Rate 125 g/ha, Postemergence
  Soybean plant response rating: 7
[7]; Rate 125 g/ha, Preemergence
  Plant response rating, Soybean: 1
[7]; Rate 250 g/ha, Postemergence
  Plant response rating, Soybean: 7
[7]; [21]
  Plant response rating, Soybean: 1
[8]; Rate 62 g/ha, Postemergence
  Plant response rating, Sugarbeets: 7
[8]; Rate 62 g/ha, Preemergence
  Sugarbeets plant response rating: 6
[8]; Rate 125 g/ha, Postemergence
  Sugarbeets plant response rating: 8
[8]; Rate 125 g/ha, Preemergence
  Plant response rating, Sugarbeets: 6
[8]; Rate 250 g/ha, Postemergence
  Plant response rating, Sugarbeets: 10
[8]; [21]
  Plant response rating, Sugarbeets: 10
[9]; Rate 62 g/ha
  Plant response rating, Nutsedge: 2
[9]; Rate 125 g/ha
  Nutsedge plant response rating: 2
[9]; Rate 250 g/ha
  Plant response rating, Nutsedge: 2
[10]; Rate 62 g/ha, Postemergence
  Plant response rating, Morningglory: 3
[10]; Rate 62 g/ha, Preemergence
  Morningglory plant response rating: 1
[10]; Rate 125 g/ha, Postemergence
  Morningglory plant response rating: 3
[10]; Rate 125 g/ha, Preemergence
  Morningglory plant response rating: 3
[10]; Rate 250 g/ha, Postemergence
  Plant response rating, Morningglory: 3
[10]; [21]
  Plant response rating, Morningglory: 4
[11]; Rate 62 g/ha, Postemergence
  Plant response rating, Corn: 1
[11]; Rate 62 g/ha
  Corn plant response rating: 0
[11]; Rate 125 g/ha, Postemergence
  Plant response rating, Corn: 2
[11]; Rate 125 g/ha
  Corn plant response rating: 0
[11]; Rate 250 g/ha, Postemergence
  Plant response rating, Corn: 2
[11]; [21]
  Plant response rating, Corn: 0
[12]; Rate 62 g/ha, Postemergence
  Plant response rating, Cocklebur: 4
[12]; Rate 62 g/ha
  Cocklebur plant response rating: 0
[12]; Rate 125 g/ha, Postemergence
  Plant response rating, Cocklebur: 4
[12]; Rate 125 g/ha
  Cocklebur plant response rating: 0
[12]; Rate 250 g/ha, Postemergence
  Plant response rating, Cocklebur: 7
[12]; [21]
  Plant response rating, Cocklebur: 0
[13]; Rate 62 g/ha, Postemergence
  Plant response rating, Giant foxtail: 1
[13]; Rate 62 g/ha, Preemergence
  Giant foxtail plant response rating: 2
[13]; Rate 125 g/ha, Postemergence
  Giant foxtail plant response rating: 2
[13]; Rate 125 g/ha, Preemergence
  Giant foxtail plant response rating: 7
[13]; Rate 250 g/ha, Postemergence
  Plant response rating, Giant foxtail: 2
[13]; [21]
  Plant response rating, Giant foxtail: 8
[14]; Rate 62 g/ha, Postemergence
  Plant response rating, Blackgrass: 2
[14]; Rate 62 g/ha
  Blackgrass plant response rating: 3
[14]; Rate 125 g/ha, Postemergence
  Plant response rating, Blackgrass: 5
[14]; Rate 125 g/ha
  Blackgrass plant response rating: 5
[14]; Rate 250 g/ha, Postemergence
  Plant response rating, Blackgrass: 8
[14]; [21]
  Plant response rating, Blackgrass: 10
[15]; Rate 62 g/ha, Postemergence
  Plant response rating, B. signalgrass: 1
[15]; Rate 62 g/ha
  B. signalgrass plant response rating: 0
[15]; Rate 125 g/ha, Postemergence
  Plant response rating, B. signalgrass: 1
[15]; Rate 125 g/ha
  B. signalgrass plant response rating: 1
[15]; Rate 250 g/ha, Postemergence
  Plant response rating, B. signalgrass: 2
[15]; Rate 250 g/ha, Postemergence as printed in head r139 (second section for compounds 26-50)
  Plant response rating, B. signalgrass: 1
[16]; Rate 62 g/ha, Postemergence
  Wheat plant response rating: 3
[16]; Rate 62 g/ha, Preemergence
  Wheat plant response rating: 1
[16]; Rate 125 g/ha, Postemergence
  Wheat plant response rating: 3
[16]; Rate 125 g/ha, Preemergence
  Plant response rating, Wheat: 2
[16]; Rate 250 g/ha, Postemergence
  Plant response rating, Wheat: 4
[16]; [21]
  Plant response rating, Wheat: 2
[17]; [22]
  Plant response rating, Ducksalad: 4
[17]; [23]
  Plant response rating, Ducksalad: 5
[17]; [24]
  Plant response rating, Ducksalad: 8
[18]; [22]
  Plant response rating, Barnyardgrass: 3
[18]; [23]
  Plant response rating, Barnyardgrass: 4
[18]; [24]
  Plant response rating, Barnyardgrass: 4
[19]; [22]
  Plant response rating, S. Flatsedge: 6
[19]; [25]
  S. Flatsedge plant response rating: 8
[19]; [24]
  Plant response rating, S. Flatsedge: 9
[20]; [22]
  Plant response rating, Rice: 2
[20]; [25]
  Rice plant response rating: 3
[20]; [24]
  Plant response rating, Rice: 4
